Experimental data: paper PMC4987127 (Leukemia, 2015)

Tests used:
BTK kinase = BTK kinase (Homo sapiens, UniProt Q06187); test: BTK signaling in AML cell lines: BTK phosphorylation; assay type: cell-based; settings: FLT3 wt and FLT3-ITD cell lines
PLCγ = test: BTK signaling in AML cell lines: downstream mediators; assay type: cell-based; settings: for effect on PLCγ phosphorylation: direct downstream target of BTK
AKT and ERK = test: Phosphorylation of AKT and ERK in AML cell lines; assay type: cell-based
[1] = test system: FLT3-mediated signaling pathways; test: FLT3-mediated signaling pathways in FLT3-ITD positive cell lines; assay type: cell-based
[2] = test system: FLT3-ITD mutant AML cell lines (MOLM13, MOLM14 and MV4-11); test: Proliferation screen of a panel of AML cell lines; assay type: cell-based; settings: panel of AML cell lines spanning M0–M7; only FLT3-ITD mutant lines MOLM13, MOLM14, MV4-11
[3] = test system: OCI-AML3 and NOMO-1 cells; test: FLT3-mediated signaling in FLT3 low expression cell lines; assay type: cell-based
[4] = test system: FLT3-ITD-dependent isogenic BaF3 cell line; test: Isogenic BaF3 cell proliferation; assay type: cell-based
FLT3-D835H-BaF3 = test: Isogenic BaF3 cell proliferation; assay type: cell-based; settings: Mus musculus
FLT3-D835Y-BaF3 = test: Isogenic BaF3 cell proliferation; assay type: cell-based; settings: Mus musculus
TEL-FLT3-wt-BaF3 = test: Isogenic BaF3 cell proliferation; assay type: cell-based; settings: Mus musculus
ITD-D835Y = test: Isogenic BaF3 cell proliferation; assay type: cell-based
ITD-F691L = test: Isogenic BaF3 cell proliferation; assay type: cell-based
FLT3-K663Q = test: Isogenic BaF3 cell proliferation; assay type: cell-based
c-Kit Ba/F3 cells = test: Oncogene-expressing Ba/F3 cell growth; assay type: cell-based
PDGFRα Ba/F3 cells = test: Oncogene-expressing Ba/F3 cell growth; assay type: cell-based
BCR-ABL Ba/F3 cells = test: Oncogene-expressing Ba/F3 cell growth; assay type: cell-based
NRAS Ba/F3 cells = test: Oncogene-expressing Ba/F3 cell growth; assay type: cell-based
FLT3 kinase = FLT3 kinase (Homo sapiens, UniProt P36888); test: Binding mode examination; settings: molecular modeling, confirmed by washing-out experiment
FLT3-ITD cell lines = test: Apoptotic cell death; assay type: cell-based; settings: concentration- and time-dependent
[5] = test system: FLT3-ITD mutant-expressing primary patient cells; test: Anti-proliferation on primary patient cells; assay type: cell-based
[6] = test system: BTK-KD MOLM14 and MOLM13 cells; settings: BTK knockdown MOLM14 and MOLM13
U937 cells = U937 cells ref 11; cited from earlier work
HL60 = HL60 ref 11; cited from earlier work
TF-1 = TF-1 ref 11; cited from earlier work
THP-1 = THP-1 ref 11; cited from earlier work

Sequence of BTK kinase (Q06187 whole entry): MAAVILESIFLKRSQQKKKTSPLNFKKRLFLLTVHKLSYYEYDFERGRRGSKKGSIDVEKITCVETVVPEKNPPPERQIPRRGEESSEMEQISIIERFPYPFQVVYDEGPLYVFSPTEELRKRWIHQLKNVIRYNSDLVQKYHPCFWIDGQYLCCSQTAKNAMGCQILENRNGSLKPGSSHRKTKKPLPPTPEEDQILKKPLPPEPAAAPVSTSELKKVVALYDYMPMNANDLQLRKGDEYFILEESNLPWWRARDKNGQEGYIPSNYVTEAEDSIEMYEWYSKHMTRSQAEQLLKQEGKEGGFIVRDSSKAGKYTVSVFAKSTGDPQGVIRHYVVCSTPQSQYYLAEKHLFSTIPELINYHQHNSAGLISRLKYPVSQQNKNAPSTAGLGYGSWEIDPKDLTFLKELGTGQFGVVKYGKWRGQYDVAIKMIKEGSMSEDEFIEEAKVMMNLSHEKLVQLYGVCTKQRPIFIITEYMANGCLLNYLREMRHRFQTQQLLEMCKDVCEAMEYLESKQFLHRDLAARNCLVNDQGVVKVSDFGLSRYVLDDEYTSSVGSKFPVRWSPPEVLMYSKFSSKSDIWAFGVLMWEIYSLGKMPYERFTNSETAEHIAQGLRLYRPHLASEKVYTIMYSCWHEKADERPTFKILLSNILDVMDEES
Sequence of FLT3 kinase (P36888 27-993): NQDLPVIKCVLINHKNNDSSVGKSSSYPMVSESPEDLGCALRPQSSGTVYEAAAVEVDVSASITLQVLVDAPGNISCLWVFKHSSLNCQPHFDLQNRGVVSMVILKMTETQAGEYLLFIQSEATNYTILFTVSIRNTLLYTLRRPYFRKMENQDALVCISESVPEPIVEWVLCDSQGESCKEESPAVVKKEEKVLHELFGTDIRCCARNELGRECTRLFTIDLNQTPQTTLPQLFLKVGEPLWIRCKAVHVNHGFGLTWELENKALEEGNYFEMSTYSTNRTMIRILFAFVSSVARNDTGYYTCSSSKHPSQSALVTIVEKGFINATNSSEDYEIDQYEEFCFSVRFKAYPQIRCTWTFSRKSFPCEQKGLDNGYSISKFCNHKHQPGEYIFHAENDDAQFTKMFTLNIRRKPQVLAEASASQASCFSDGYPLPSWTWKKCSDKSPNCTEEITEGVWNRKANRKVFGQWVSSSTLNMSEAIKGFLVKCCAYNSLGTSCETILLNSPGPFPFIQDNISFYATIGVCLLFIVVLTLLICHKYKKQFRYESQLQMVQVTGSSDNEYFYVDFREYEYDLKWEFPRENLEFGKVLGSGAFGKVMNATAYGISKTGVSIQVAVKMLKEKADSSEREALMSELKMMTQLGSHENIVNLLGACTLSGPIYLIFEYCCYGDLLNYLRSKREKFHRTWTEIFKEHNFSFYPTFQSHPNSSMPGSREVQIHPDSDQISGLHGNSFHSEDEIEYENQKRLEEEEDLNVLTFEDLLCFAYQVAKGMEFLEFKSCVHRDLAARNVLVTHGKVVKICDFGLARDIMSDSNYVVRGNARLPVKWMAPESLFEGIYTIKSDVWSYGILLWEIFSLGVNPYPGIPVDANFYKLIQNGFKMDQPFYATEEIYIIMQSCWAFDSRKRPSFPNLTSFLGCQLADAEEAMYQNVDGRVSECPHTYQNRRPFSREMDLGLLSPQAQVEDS

CC(C)(C)c1cc(NC(=O)Nc2ccc(-c3cn4c(n3)sc3cc(OCCN5CCOCC5)ccc34)cc2)no1 [AC220]
effect on BTK kinase phosphorylation/activity (BTK kinase): did not affect | effect on PLCγ phosphorylation (PLCγ): did not affect | effect on phosphorylation of AKT and ERK (AKT and ERK): inhibited

C=CC(=O)Nc1cccc(Nc2nc(Nc3ccc(OCCOC)cc3)ncc2F)c1 [AVL-292]
effect on FLT3-mediated signaling [1]: did not exhibit any effect | effect on BTK kinase phosphorylation/activity (BTK kinase): effective | effect on PLCγ phosphorylation (PLCγ): effective | effect on phosphorylation of AKT and ERK (AKT and ERK): no effect

Cc1c(NC(=O)c2ccc(C(C)(C)C)cc2)cccc1-c1cn(C)c(=O)c(Nc2ccc(C(=O)N3CCOCC3)cc2)n1 [CGI-1746]
effect on FLT3-mediated signaling [1]: did not exhibit any effect | effect on PLCγ phosphorylation (PLCγ): effective | effect on phosphorylation of AKT and ERK (AKT and ERK): no effect

C=CC(=O)N1CCC[C@@H](n2nc(-c3ccc(Oc4ccccc4)cc3)c3c(N)ncnc32)C1 [ibrutinib, Ibrutinib]
sensitivity to ibrutinib (proliferation) [2]: sensitive | effect on FLT3-related signaling [3]: not affected | effect on downstream mediators of BTK kinase (PLCγ; only in FLT3 wt-expressing cell lines (NOMO-1 and OCI-AML3)): affected | rescue of inhibitory effect by IL-3 treatment ([4]; FLT3-ITD BaF3 with IL-3): completely rescued | GI50 ([4]; Mus musculus, BaF3): 120 nM | GI50 (FLT3-D835H-BaF3): 63 nM | GI50 (FLT3-D835Y-BaF3): 500 nM | GI50 (TEL-FLT3-wt-BaF3): 460 nM | activity against mutation (ITD-D835Y): less active | activity against mutation (ITD-F691L): less active | activity against mutation (FLT3-K663Q): less active | effect on growth (c-Kit Ba/F3 cells): did not affect the growth | effect on growth (PDGFRα Ba/F3 cells): did not affect the growth | effect on growth (BCR-ABL Ba/F3 cells): did not affect the growth | effect on growth (NRAS Ba/F3 cells): did not affect the growth | mode of inhibition of FLT3 kinase (FLT3 kinase): reversible binding | apoptotic cell death (FLT3-ITD cell lines): induced apoptotic cell death | anti-proliferation activity [5]: dose-dependent anti-proliferation activity | growth of BTK-KD cells [6]: significantly blocked the growth | inhibition of proliferation (U937 cells): moderate inhibition of proliferation | activity against AML cell line (HL60): no apparent activity | activity against AML cell line (TF-1): no apparent activity | activity against AML cell line (THP-1): no apparent activity
